# Assay results: PubChem BioAssay (NCI)
#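 96-well plates; 48 h exposure; 5 concentrations. Endpoints by linear interpolation between flanking doses. Not reached: highest tested concentration assigned. GI50 = concentration required for 50% inhibition of growth. Definition used: TGI = concentration required for complete inhibition of growth.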
# How the values were obtained:
# Test in all cases: growth of human tumour cells (NCI), 48 h
# UACC-257 melanoma = test system: UACC-257 melanoma
# OVCAR-4 ovarian = test system: OVCAR-4 ovarian
# MCF7 breast = test system: MCF7 breast
# TK-10 renal = test system: TK-10 renal
# M14 melanoma = test system: M14 melanoma
# OVCAR-3 ovarian = test system: OVCAR-3 ovarian
# OVCAR-8 ovarian = test system: OVCAR-8 ovarian
# MDA-MB-435 = test system: MDA-MB-435
# ACHN renal = test system: ACHN renal
# SR leukemia = test system: SR leukemia
# MDA-MB-231 breast = test system: MDA-MB-231 breast
# SNB-75 CNS = test system: SNB-75 CNS
# HCT-15 colon = test system: HCT-15 colon
# HCC-2998 colon = test system: HCC-2998 colon
# HS 578T breast = test system: HS 578T breast
# A549 NSCLC = test system: A549 NSCLC
# SK-MEL-5 melanoma = test system: SK-MEL-5 melanoma
# OVCAR-5 ovarian = test system: OVCAR-5 ovarian
# NCI-H460 lung = test system: NCI-H460 lung
# CCRF-CEM leukemia = test system: CCRF-CEM leukemia
# SN12C renal = test system: SN12C renal
# U251 CNS = test system: U251 CNS
# RXF 393 renal = test system: RXF 393 renal
# SF-539 CNS = test system: SF-539 CNS
# IGROV1 ovarian = test system: IGROV1 ovarian
# BT-549 breast = test system: BT-549 breast
# A498 renal = test system: A498 renal
# MALME-3M melanoma = test system: MALME-3M melanoma
smiles,measurement,setting,value
C#Cc1ccc(-n2c(/C=C/c3ccc(C(F)(F)F)cc3)nc3ncccc3c2=O)cc1,GI50,UACC-257 melanoma,1560 nM
same,TGI,UACC-257 melanoma,2950 nM
same,GI50,OVCAR-4 ovarian,1580 nM
same,TGI,OVCAR-4 ovarian,3290 nM
same,GI50,MCF7 breast,2490 nM
same,TGI,MCF7 breast,10200 nM
same,GI50,TK-10 renal,2190 nM
same,TGI,TK-10 renal,3700 nM
same,GI50,M14 melanoma,2070 nM
same,TGI,M14 melanoma,4270 nM
same,GI50,OVCAR-3 ovarian,1670 nM
same,TGI,OVCAR-3 ovarian,3170 nM
same,GI50,OVCAR-8 ovarian,1870 nM
same,TGI,OVCAR-8 ovarian,4670 nM
same,GI50,MDA-MB-435,2270 nM
same,TGI,MDA-MB-435,6480 nM
same,GI50,ACHN renal,1710 nM
same,TGI,ACHN renal,3260 nM
same,GI50,SR leukemia,2000 nM
same,TGI,SR leukemia,8080 nM
same,GI50,MDA-MB-231 breast,2050 nM
same,TGI,MDA-MB-231 breast,5470 nM
same,GI50,SNB-75 CNS,1810 nM
same,TGI,SNB-75 CNS,7220 nM
same,GI50,HCT-15 colon,1740 nM
same,TGI,HCT-15 colon,3680 nM
same,GI50,HCC-2998 colon,1960 nM
same,TGI,HCC-2998 colon,3470 nM
same,GI50,HS 578T breast,3460 nM
same,TGI,HS 578T breast,> 100000 nM
same,GI50,A549 NSCLC,1830 nM
same,TGI,A549 NSCLC,4560 nM
same,GI50,SK-MEL-5 melanoma,1490 nM
same,TGI,SK-MEL-5 melanoma,2870 nM
same,GI50,OVCAR-5 ovarian,1940 nM
same,TGI,OVCAR-5 ovarian,3560 nM
same,GI50,NCI-H460 lung,1980 nM
same,TGI,NCI-H460 lung,4130 nM
same,GI50,CCRF-CEM leukemia,1950 nM
same,TGI,CCRF-CEM leukemia,> 100000 nM
same,GI50,SN12C renal,2080 nM
same,TGI,SN12C renal,5630 nM
same,GI50,U251 CNS,1670 nM
same,TGI,U251 CNS,3130 nM
same,GI50,RXF 393 renal,1790 nM
same,TGI,RXF 393 renal,3790 nM
same,GI50,SF-539 CNS,1680 nM
same,TGI,SF-539 CNS,3170 nM
same,GI50,IGROV1 ovarian,1960 nM
same,TGI,IGROV1 ovarian,4020 nM
same,GI50,BT-549 breast,1710 nM
same,TGI,BT-549 breast,3370 nM
same,GI50,A498 renal,2340 nM
same,TGI,A498 renal,5760 nM
same,GI50,MALME-3M melanoma,1640 nM
same,TGI,MALME-3M melanoma,3570 nM
